The values that follow are results of earlier work, collected in patent US20090048317A1, “Formulations of candesartan” (priority 2007, published 2009).

The structures appear in SMILES notation.

The conditions of the data set: in water and in methanol.

Turning to `CCOc1nc2cccc(C(=O)OC(C)OC(=O)OC3CCCCC3)c2n1Cc1ccc(-c2ccccc2-c2nnn[nH]2)cc1` (racemic) [Candesartan cilexetil, (±)-1-[[(cyclohexyloxy)carbonyl]oxy]ethyl-2-ethoxy-1-[[′-(1H-tetrazol-5-yl)[1,1-biphenyl]-4-yl]methyl]-1H-benzimidazole-7-carboxylate], the solubility result is recorded as “sparingly soluble”.
